Laboratory results: patent US20120122908A1, “Novel C-4 Substituted Retinoids” (University of Maryland, priority 2000, published 2012)

Legend:
PC-3 tumors = experiment: Growth of PC-3 tumors in male nude mice; assay type: in vivo; details: PC-3 xenografts
Experimental: FIG. 20: Effect of ATRA and VN/50A-1 on PC 3 Tumor Volumes in Male Nude Mice
The effects of VN/50A-1 on tumor growth was determined in mouse xenografts and compared to ATRA as the reference treatment (FIG. 20). Mice were grouped 35 days after cell inoculation when measurable tumor volume was approximately 500 mm^3. Total tumor volume in the control mice increased 5.4-fold over 7 weeks and tumor volume in the mice treated with ATRA increased by 3.2-fold (41% reduction compared with control). In the mice treated with VN/50A-1, tumor volume increased by 3.5-fold, which was 38% reduction versus control mice, which correlated well with accumulation of ATRA in plasma and in tumors. […] VN/50A-1 is completely eliminated from plasma within 3 hour of administration to mice (see FIG. 18). The inventive compounds with longer half-lives will have favorable bioavailability and are expected to be more efficacious.

LNCaP cells = experiment: LNCaP cell growth, compound in combination with ATRA; assay type: cell-based, human; details: 10^−8 to 10^−5 M in combination with 10^−5 M ATRA, compared with no drug or ATRA only
Experimental: LNCaP cells are androgen-dependent cell cultures. PC-3 cells are androgen independent cell culture.
LNCaP cells are transferred into ATRA-free medium 3 days prior to start of experiments. Medium consist of phenol red-free IMEM supplemented with 5% FBS and 1% P/S. Cell are then plated into 24-well culture plates (15000 cells per well) in 1 mL of same medium. After a 24-hour attachment period, the vehicle (ethanol) or ATRA (10^−5 M) alone or ATRA in combination with a novel compound at a range of concentrations are added to triplicate wells. Medium/treatments are changed every 3 days. After 9 days of treatment, cells are removed from the wells with typsin/EDTA and counted in a Coulter counter. Using well-known methods (Wouters W, Van Dun J, Dillen A, Coene M.-C, Cools W and De Coster R, Effects of liarozole, a new antitumoral compound an retinoic acid-induced inhibition of cell growth and on retinoic acid metabolism in MCF-7 breast cancer cells, Cancer Res 52: 2841-2846, 1992), one determines the inhibitory effect of the novel compounds on LNCaP cells grown with ATRA.

PC-3 cells = details: 9 days, with ATRA (1 nM), FIG. 16
Experimental: Experiments are conducted on two prostate cancer cell lines, LNCaP cells and PC-3 cells.
This method also is repeated using PC-3 cells.
PC-3 cells were incubated with test compounds for 9 days with medium changes on days 2, 5, and 7 and proliferation assessed as described above.

MCF-7Ca tumors = experiment: Growth of MCF-7Ca tumors in mice; assay type: in vivo; details: 10 mg/kg, after twenty-eight days
Experimental: FIG. 12. VN/14-1RA inhibition of growth of MCF-7Ca tumors in nude mice.
LNCaP cells are cultured as described above. Subconfluent cell are scraped into DPBS, counted and suspended in Matrigel (3×10^7 cells/mL). Male SCID mice 4-6 weeks old are obtained from NCI, Frederick, Md. Each mouse is inoculated s.c. with 0.1 mL of the cell suspension at two sites. Growth rate are determined from tumor volumes using calipers using well-known techniques (Yue W, Wang J, Savinov A, Brodie A, Effect of aromatase inhibitors on growth of mammary tumors in a nude mouse model, Cancer Res, July 15; 55(14):3073-7 (1995). Tumor volumes are calculated according to the equation: V=4/3×π×r1^2×r2 (r1<r2). Tumors are allowed to grow for 4-5 weeks following cell inoculation. Mice are then grouped (6 mice per group) for castration or treatment with vehicle, liarozole (as a comparison), or one of the C-4 substituted ATRA analogs (at various concentration based on IC50 and/or Ki values for each novel compound, mg/kg/day). The route of administration of C-4 substituted ATRA analogs include s.c., i.m., i.p., and oral. Tumors are measured weekly for 4-5 weeks of treatment and tumor volumes calculated. Blood is collected from the euthanized animals that are autopsied 1 hour after the last injection. Tumors are excised, weighed and stored at −80° C. until required. […]

SMILES: CC(C=CC1=C(C)C(n2ccnc2)CCC1(C)C)=CC=CC(C)=CC(=O)n1ccnc1 (stereo not drawn) [VN/50A-1]
- tumor weights versus control mice (PC-3 tumors): significantly (P<0.05) lower
- reduction of tumor volume compared with control (PC-3 tumors; over 7 weeks): 38%
- increase of total tumor volume (PC-3 tumors; over 7 weeks, control 5.4-fold): 3.5 fold

SMILES: CC1=C(/C=C/C(C)=C/C=C/C(C)=C/C(=O)O)C(C)(C)CCC1n1ccnc1 (racemic) [VN/14-1, (±)-4-(1H-imidazole-1-yl)retinoic acid]
- inhibition of proliferation of LNCaP cells (LNCaP cells): inhibit the proliferation of LNCaP cells better than no drug or ATRA only
- antiproliferative effect on PC-3 cells (PC-3 cells): clearly more effective than liarozole
- size of MCF-7Ca tumors relative to control group (MCF-7Ca tumors): one-half
